pIC50: −log10 of the molar value. Where two headings read alike, the source gives them in different places.
Columns and labels:
Assay type in all cases: cell-based
[1] = tested on: H1975 (EGFR T790M+L858R mutation, non-small cell lung cancer cell line); assay: Cell viability assay (WST/CCK8), H1975 cells; details: Homo sapiens, NCI-H1975, read-out: IC50 (half inhibitory concentration)
Description: (§1) The cell lines with abnormal EGFR expression used are as follows: • HCC827 cells (EGFR Exon19 del, non-small cell lung cancer cells); • PC9 cells (EGFR Exon 19 del, non-small cell lung cancer cells); • PC9BracA1 (EGFR Exon 19 del+T790M, non-small cell lung cancer cells) • H1975 (EGFR Exon T790M+L858R mutation, non-small cell lung cancer cell line) • BT474 cells (HER2 positive breast cancer cells)
(§2) All of the half inhibitory concentrations (IC50) of these compounds of the present invention were determined with WST reagent from Fuyuan Biotec Company. The specific experiment procedures are as follows: Cancer cells were planted in 96-well-plate at the density of 3 000 cells per well with 100 μL RPMI1640 completed culture medium. In the next day, compounds with indicated concentrations were added to the cells, DMSO was used as the negative control and the EGFR TKIs were used to treat cells as the positive groups. After 72 hours drug treatment, cell viability was measured by using the WST reagent following the instructions.

[2] = tested on: PC9BracA1 (EGFR Exon 19 del+T790M, non-small cell lung cancer cells); assay: Cell viability assay (WST/CCK8), PC9Brac1 cells; details: read-out: IC50 (half inhibitory concentration)
Description: as §1, §2

[3] = tested on: HCC827 cells (EGFR Exon19 del, non-small cell lung cancer cells); assay: Cell viability assay (WST/CCK8), HCC827 cells; details: Homo sapiens, HCC827, 72 h, 72 hours, read-out: IC50 (half inhibitory concentration)
Outline: (§3)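 Cells seeded at 3 000/well in RPMI1640 complete medium, dosed next day with compounds (top 10 μM, 3-fold, 10 points) for 72 h. Viability read with WST (CCK8) reagent; DMSO as negative control, EGFR TKIs as positive controls; IC50 determined.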

[4] = tested on: PC9 cells (EGFR Exon 19 del, non-small cell lung cancer cells); assay: Cell viability assay (WST/CCK8), PC9 cells; details: Homo sapiens, PC-9, 72 hours, read-out: IC50 (half inhibitory concentration)
Outline: as §3

[5] = tested on: BT474 cells (HER2 positive breast cancer cells); assay: Cell viability assay (CCK8), BT474 cells; details: Homo sapiens, BT-474, Table 10, BT474, 72 hours, read-out: IC50 (half inhibitory concentration)
Description: as §1
as §2, with “instructions. The growth inhibition curve of the compounds on cells were plotted by Prism GraphPad, and the compounds IC50 calculated from it.” for “instructions.”
The cell viability assays were taken to determine the anti-tumor activity of these indicated compounds in BT474 cells, which can overexpress HER2 protein. The cells were treated with the gradient concentration of these compounds (the maximum concentration: 10 μM; 3-fold dilution ratio, 10 concentration gradients) for 72 hours and then incubated with the CCK8 reagent to determine the cell viability.

[6] = Table 8, osimertinib-based compounds, H1975, 72 hours, WST
[7] = Table 8, osimertinib-based compounds, Pc9Brc1, 72 hours, WST
[8] = Table 8, osimertinib-based compounds, HCC827, WST
[9] = Table 8, osimertinib-based compounds, PC9, WST
[10] = PC9Brac1 (Ex19del + T790M), 72 hours, WST
[11] = HCC827 (Exon19 Del), WST (CCK8)
[12] = Table 7, canertinib-based compounds, H1975 (L858R + T790M)
[13] = Table 6, canertinib-based compounds, HCC827 (Exon19 Del), WST
[14] = Table 6, canertinib-based compounds, PC9 (Exon19 Del), WST
[15] = H1975 (L858R + T790M), 72 hours, WST

| pIC50 [1, 6] | pIC50 [2, 7] | pIC50 [3, 8] | pIC50 [5] | pIC50 [3, 11] | pIC50 ([4]; PC9 (Exon19 Del), WST (CCK8)) | Compound | further results |
| --- | --- | --- | --- | --- | --- | --- | --- |
| 7.15 | 6.44 | 6.06 | – | – | – | C=CC(=O)Nc1cc(Nc2nccc(-c3cn(C)c4ccccc34)n2)c(OC)cc1N(C)CCN(C)CCCSc1cccc2c1CN(C1CCC(=O)NC1=O)C2=O (centres unmarked) [SIAIS337079, N-(2-((2-((3-((2-(2,6-dioxopiperidin-3-yl)-1-oxoisoindolin-4-yl)thio)propyl)(methyl)amino)ethyl)(methyl)amino)-4-methoxy-5-((4-(1-methyl-1H-indol-3-yl)pyrimidin-2-yl)amino)phenyl)acrylamide] | pIC50 [4, 9]: 6.43 |
| – | 6.16 | 6.45 | – | – | – | C=CC(=O)Nc1cc(Nc2nccc(-c3cn(C)c4ccccc34)n2)c(OC)cc1N(C)CCN(C)CCCCCCCCSc1cccc2c1CN(C1CCC(=O)NC1=O)C2=O (centres unmarked) [SIAIS337084, N-(2-((2-((8-((2-(2,6-dioxopiperidin-3-yl)-1-oxoisoindolin-4-yl)thio)octyl)(methyl)amino)ethyl)(methyl)amino)-4-methoxy-5-((4-(1-methyl-1H-indol-3-yl)pyrimidin-2-yl)amino)phenyl)acrylamide] | pIC50 [4, 9]: 6.57 |
| 7.80 | 6.97 | 7.82 | – | – | – | C=CC(=O)Nc1cc(Nc2nccc(-c3cn(C)c4ccccc34)n2)c(OC)cc1N(C)CCN(C)CCCC#Cc1cccc2c1CN(C1CCC(=O)NC1=O)C2=O (centres unmarked) [SIAIS337089, N-(2-((2-((5-(2-(2,6-dioxopiperidin-3-yl)-1-oxoisoindolin-4-yl)pent-4-yn-1-yl)(methyl)amino)ethyl)(methyl)amino)-4-methoxy-5-((4-(1-methyl-1H-indol-3-yl)pyrimidin-2-yl)amino)phenyl)acrylamide] | pIC50 [4, 9]: 7.09 |
| – | 6.01 | 6.94 | – | – | – | C=CC(=O)Nc1cc(Nc2nccc(-c3cn(C)c4ccccc34)n2)c(OC)cc1N(C)CCN(C)C(=O)CCCCCSc1cccc2c1CN(C1CCC(=O)NC1=O)C2=O (centres unmarked) [SIAIS337056, N-(2-((2-acrylamido-5-methoxy-4-((4-(1-methyl-1H-indol-3-yl)pyrimidin-2-yl)amino)phenyl)(methyl)amino)ethyl)-6-((2-(2,6-dioxopiperidin-3-yl)-1-oxoisoindolin-4-yl)thio)-N-methylhexanamide] | – |
| – | – | – | 7.65 | – | – | C=CC(=O)Nc1cc2c(Nc3ccc(F)c(Cl)c3)ncnc2cc1OCCCN1CCC(N2CCN(C(=O)CCCCSc3cccc4c3CN(C3CCC(=O)NC3=O)C4=O)CC2)CC1 (centres unmarked) [SIAIS262175, N-(4-((3-chloro-4-fluorophenyl)amino)-7-(3-(4-(4-(5-((2-(2,6-dioxopiperidin-3-yl)-1-oxoisoindolin-4-yl)thio)pentanoyl)piperazin-1-yl)piperidin-1-yl)propoxy)quinazolin-6-yl)acrylamide] | pIC50 [1, 12]: 6.37; pIC50 [3, 13]: 8.17; pIC50 [4, 14]: 7.77 |
| 6.77 | – | 6.92 | – | – | – | C=CC(=O)Nc1cc(Nc2nccc(-c3cn(C)c4ccccc34)n2)c(OC)cc1N(C)CCN(C)C(=O)CCCCCCCCCSc1cccc2c1CN(C1CCC(=O)NC1=O)C2=O (centres unmarked) [SIAIS337060, N-(2-((2-acrylamido-5-methoxy-4-((4-(1-methyl-1H-indol-3-yl)pyrimidin-2-yl)amino)phenyl)(methyl)amino)ethyl)-10-((2-(2,6-dioxopiperidin-3-yl)-1-oxoisoindolin-4-yl)thio)-N-methyldecanamide] | – |
| 7.68 | – | 7.32 | – | – | – | C=CC(=O)Nc1cc(Nc2nccc(-c3cn(C)c4ccccc34)n2)c(OC)cc1N(C)CCN(C)C(=O)CCCCCCSc1cccc2c1CN(C1CCC(=O)NC1=O)C2=O (centres unmarked) [SIAIS337057, N-(2-((2-acrylamido-5-methoxy-4-((4-(1-methyl-1H-indol-3-yl)pyrimidin-2-yl)amino)phenyl)(methyl)amino)ethyl)-7-((2-(2,6-dioxopiperidin-3-yl)-1-oxoisoindolin-4-yl)thio)-N-methylheptanamide] | – |

The remaining lines, values behind:

| Compound | pIC50 [1, 6] | pIC50 [2, 7] | pIC50 [3, 8] | pIC50 [5] | pIC50 [3, 11] | pIC50 ([4]; PC9 (Exon19 Del), WST (CCK8)) | further results |
| --- | --- | --- | --- | --- | --- | --- | --- |
| COc1cc2ncnc(Nc3ccc(F)c(Cl)c3)c2cc1NC(=O)/C=C/CN1CCC(NC(=O)CCCNc2cccc3c2C(=O)N(C2CCC(=O)NC2=O)C3=O)CC1 (centres unmarked) [SIAIS249083, (E)-N-(4-((3-chloro-4-fluorophenyl)amino)-7-methoxyquinazolin-6-yl)-4-(4-(4-((2-(2,6-dioxopiperidin-3-yl)-1,3-dioxoisoindolin-4-yl)amino)butanamido)piperidin-1-yl)but-2-enamide] | – | – | – | 7.19 | 8.30 | 8.54 | pIC50 [2, 10]: 6.36 |
| COc1cc2ncnc(Nc3ccc(F)c(Cl)c3)c2cc1NC(=O)/C=C/CN1CCC(N2CCNCC2)CC1 [SIAIS262021, (E)-N-(4-((3-chloro-4-fluorophenyl)amino)-7-methoxyquinazolin-6-yl)-4-(4-(piperazin-1-yl)piperidin-1-yl)but-2-enamide] | – | – | – | 7.49 | – | – | pIC50 [2, 10]: 6.02 |
| C=CC(=O)Nc1cc2c(Nc3ccc(F)c(Cl)c3)ncnc2cc1OCCCN1CCN(C(=O)CCOCCOCCNc2cccc3c2C(=O)N(C2CCC(=O)NC2=O)C3=O)CC1 (centres unmarked) [SIAIS262127, N-(4-((3-chloro-4-fluorophenyl)amino)-7-(3-(4-(3-(2-(2-((2-(2,6-dioxopiperidin-3-yl)-1,3-dioxoisoindolin-4-yl)amino)ethoxy)ethoxy)propanoyl)piperazin-1-yl)propoxy)quinazolin-6-yl)acrylamide] | – | – | – | – | – | – | pIC50 [1, 12]: 6.33; pIC50 ([2]; Table 7, canertinib-based compounds, PC9Brca1 (Ex19del + T790M)): 6.37; pIC50 [3, 13]: 8.19; pIC50 [4, 14]: 8.01 |
| COc1cc2ncnc(Nc3ccc(F)c(Cl)c3)c2cc1NC(=O)/C=C/CN1CCC(N2CCN(C(=O)CSc3cccc4c3CN(C3CCC(=O)NC3=O)C4=O)CC2)CC1 (centres unmarked) [SIAIS262034, (E)-N-(4-((3-chloro-4-fluorophenyl)amino)-7-methoxyquinazolin-6-yl)-4-(4-(4-(2-((2-(2,6-dioxopiperidin-3-yl)-1-oxoisoindolin-4-yl)thio)acetyl)piperazin-1-yl)piperidin-1-yl)but-2-enamide] | – | – | – | – | 8.44 | 7.95 | pIC50 [1, 15]: 6.08 |
| COc1cc2ncnc(Nc3ccc(F)c(Cl)c3)c2cc1NC(=O)/C=C/CN1CCC(NC(=O)CNc2cccc3c2C(=O)N(C2CCC(=O)NC2=O)C3=O)CC1 (centres unmarked) [SIAIS249081, (E)-N-(4-((3-chloro-4-fluorophenyl)amino)-7-methoxyquinazolin-6-yl)-4-(4-(2-((2-(2,6-dioxopiperidin-3-yl)-1,3-dioxoisoindolin-4-yl)amino)acetamido)piperidin-1-yl)but-2-enamide] | – | – | – | – | 7.92 | 7.49 | pIC50 [1, 15]: 6.94 |
| COc1cc2ncnc(Nc3ccc(F)c(Cl)c3)c2cc1NC(=O)/C=C/CN1CCC(NC(=O)CCCCCNc2cccc3c2C(=O)N(C2CCC(=O)NC2=O)C3=O)CC1 (centres unmarked) [SIAIS249084, (E)-N-(1-(4-((4-((3-chloro-4-fluorophenyl)amino)-7-methoxyquinazolin-6-yl)amino)-4-oxobut-2-en-1-yl)piperidin-4-yl)-6-((2-(2,6-dioxopiperidin-3-yl)-1,3-dioxoisoindolin-4-yl)amino)hexanamide] | – | – | – | 8.22 | 8.52 | 9.22 | pIC50 [2, 10]: 6.36 |

Reference: patent US12564638B2 (SHANGHAITECH UNIVERSITY, priority 2019, dated 2026)
